Measured values taken from patent US11020405B2, “Method for prevention or treatment of diabetic complications” (KANGWON NATIONAL UNIVERSITY UNIVERSITY-INDUSTRY COOPERATION …, priority 2017, dated 2021).

What was measured:
TGase = experiment: Identification of receptor of midazolam through TGase activity analysis; format: cell-based, human; settings: HRECs, 0-50 μM flumazenil or 0-30 μM PK11195 1 hr, then 20 μM midazolam 30 min, then 10 ng/ml VEGF (FIG. 11B)
Method: With reference to FIG. 11A, the HRECs of Test Example 1 were subjected to the respective treatments below, cultured for 2 hr, treated with 1 mM 5-(biotinamido)pentylamine, incubated for 1 hr, fixed with 3.7% formaldehyde, treated with 0.2% triton X-100, treated with a blocking solution containing 138 mM NaCl, 0.1% Tween 20 and 2% BSA dissolved in a 20 mM Tris (pH 7.6) buffer, incubated for 30 min, incubated with FITC-conjugated streptavidin (1:200, v/v) for 1 hr, and then measured using confocal microscopy to thus determine the fluorescence intensity of single cells.
(§1) As will be described below, flumazenil was used as a GABAA receptor antagonist and PK11195 was used as a TSOP receptor antagonist.
With reference to FIG. 11B, the HRECs of Test Example 1 were treated with 0 μM, 0.01 μM, 0.1 μM, 1 μM, 10 μM, 20 μM, and 50 μM flumazenil and 0 μM, 0.01 μM, 0.1 μM, 1 μM, 3 μM, 10 μM, and 30 μM PK11195, cultured for 1 hr, treated with 20 μM midazolam, cultured for 30 min, treated with 10 ng/ml VEGF, incubated for 10 min, treated with 1 mM 5-(biotinamido)pentylamine, incubated for 1 hr, fixed with 3.7% formaldehyde, treated with 0.2% triton X-100, treated with a blocking solution containing 138 mM NaCl, 0.1% Tween 20 and 2% BSA dissolved in a 20 mM Tris (pH 7.6) buffer, incubated for 30 min, incubated with FITC-conjugated streptavidin (1:200, v/v) for 1 hr, and then measured using confocal microscopy to thus determine the fluorescence intensity of single cells.

[1] = test system: human retinal endothelial cells (HRECs); experiment: Identification of receptor of midazolam through ROS concentration analysis; format: cell-based; settings: 0-50 μM flumazenil or 0-30 μM PK11195 1 hr, then 20 μM midazolam 30 min, then 10 ng/ml VEGF (FIG. 10B)
Method: With reference to FIG. 10A, the HRECs of Test Example 1 were subjected to the respective treatments below, cultured for 10 min, treated with 10 μM H2DCFDA, stained for 10 min in a phenol-red-free low-serum medium, and measured using confocal microscopy to thus determine the fluorescence intensity of single cells.
as §1
With reference to FIG. 10B, the HRECs of Test Example 1 were treated with 0 μM, 0.01 μM, 0.1 μM, 1 μM, 10 μM, 20 μM, and 50 μM flumazenil and 0 μM, 0.01 μM, 0.1 μM, 1 μM, 3 μM, 10 μM, and 30 μM PK11195, cultured for 1 hr, treated with 20 μM midazolam, cultured for 30 min, treated with 10 ng/ml VEGF, incubated for 10 min, treated with 10 μM H2DCFDA, stained for 10 min in a phenol-red-free low-serum medium, and then measured using confocal microscopy to thus determine the fluorescence intensity of single cells.

[2] = test system: human retinal endothelial cells (HRECs); experiment: Analysis of intracellular Ca^2+ (Fluo4-AM, confocal microscopy); format: cell-based; settings: 10 ng/mL VEGF with 5 μM BAPTA-AM, 1 mM NAC, 0.5 μM Trolox, 50 μM cystamine or 20 μM MDC, 30 min (FIG. 2B)
Method: (§2) Purchased from Applied Cell Biology Research Institute (Cell Systems, Kirkland, Wash.), human retinal endothelial cells (HRECs) were cultured in an M19 medium, containing 20% FBS, 3 ng/mL bFGF, 5 U/mL heparin, 100 U/mL penicillin and […], in a 2% gelatin-coated plate.
(§3) Before the following Test Examples 2 to 7, the HRECs were cultured for 6 hr in a medium containing 1% FBS and an antibiotic agent, thus preparing HRECs of Test Example 1.
With reference to FIG. 2A, the HRECs of Test Example 1 were subjected to the respective treatments below, stained with 2 μM Fluo4-AM at 37° C. for 30 min and then measured at time intervals of 10 sec using confocal microscopy (FV-300, Olympus, Tokyo, Japan).
With reference to FIG. 2B, the HRECs of Test Example 1 were subjected to the respective treatments below, cultured for 30 min, stained with 2 μM Fluo4-AM at 37° C. for 30 min and then measured at time intervals of 10 sec using confocal microscopy.

[3] = test system: endothelial monolayer of HRECs; experiment: Analysis of cell permeability (FITC-dextran, Transwell); format: cell-based, human; settings: HREC monolayer, 10 ng/mL VEGF 90 min with 20 μM midazolam, 5 μM BAPTA-AM, 1 mM NAC, 0.5 μM Trolox, 50 μM cystamine or 20 μM MDC; 40 kDa FITC-dextran 60 min (FIG. 7)
Method: The HRECs were cultured (e.g. about 5 days) until the cell confluence thereof reached an appropriate level on gelatin-coated 0.4 μm polycarbonate membranes of Transwell Permeable Supports (Costar, Corning, N.Y.), followed by the respective treatments below and culture for 30 min. Here, treatment with 10 ng/mL VEGF was performed for 90 min. Thereafter, the HRECs were treated with 1 mg/mL 40 kDa FITC-dextran (Sigma-Aldrich), incubated for 60 min, after which the amount of FITC-dextran that was diffused into the lower chamber through the endothelial monolayer of HERCs was measured using a microplate spectrofluorometer (Molecular Devices, Sunnyvale, Calif.).

β-catenin = experiment: Analysis of adherens junction (β-catenin staining); format: cell-based, human; settings: HRECs, 10 ng/mL VEGF 90 min with 20 μM midazolam, 5 μM BAPTA-AM, 1 mM NAC, 0.5 μM Trolox, 50 μM cystamine or 20 μM MDC (FIGS. 8, 9)
Method: as §2, §3
The HRECs of Test Example 1 were subjected to the respective treatments below and cultured for 30 min. Here, treatment with 10 ng/mL VEGF was performed for 90 min. Thereafter, the HRECs were treated with 1 mM 5-(biotinamido)pentylamine, incubated for 1 hr, fixed with 3.7% formaldehyde, treated with 0.2% triton X-100, treated with a blocking solution containing 138 mM NaCl, 0.1% Tween 20 and 2% BSA dissolved in a 20 mM Tris (pH 7.6) buffer, incubated for 30 min, incubated with a monoclonal β-catenin antibody (1:200; Santa Cruz Biotechnology) for 12 hr or more, incubated with a FITC-conjugated goat anti-mouse antibody, and measured using confocal microscopy. Some (the following i), ii), iii), iv)) of the results are shown in FIG. 8, and the β-catenin concentrations in the portions represented by the dotted lines in FIG. 8 are shown in FIG. 9. With reference to FIG. 9, 10 randomly selected cells were measured to determine the fluorescence intensity of single cells and thus quantify β-catenin.
β-catenin, which is a protein that mediates adherens junction like VE-cadherin, was analyzed to evaluate adherens junction.

[4] = test system: human retinal endothelial cells (HRECs); experiment: Analysis of ROS of cells (H2DCFDA fluorescence); format: cell-based; settings: 10 ng/mL VEGF with 20 μM midazolam, 5 μM BAPTA-AM, 1 mM NAC, 0.5 μM Trolox, 50 μM cystamine or 20 μM MDC (FIG. 3B)
Method: as §2, §3
With reference to FIG. 3A, the HRECs of Test Example 1 were treated with 0 to 20 μM midazolam, cultured for 30 min, treated with 10 ng/mL VEGF and 10 μM H2DCFDA (Molecular Probes, Eugene, Oreg.), stained for 10 min in a phenol-red-free low-serum medium, and then measured using confocal microscopy to thus determine the fluorescence intensity of single cells.
With reference to FIG. 3B, the HRECs of Test Example 1 were subjected to the respective treatments below and cultured for 30 min. Upon treatment with 10 ng/mL VEGF, treatment with 10 μM H2DCFDA was performed therewith, or alternatively, treatment with 10 μM H2DCFDA was performed alone, followed by staining for 10 min in a phenol-red-free low-serum medium and then measurement via confocal microscopy to thus determine the fluorescence intensity of single cells.

VE-cadherin = experiment: Analysis of adherens junction (VE-cadherin staining); format: cell-based, human; settings: HRECs, 10 ng/mL VEGF 90 min with 20 μM midazolam, 5 μM BAPTA-AM, 1 mM NAC, 0.5 μM Trolox, 50 μM cystamine or 20 μM MDC (FIGS. 5, 6)
Method: as §2, §3
The HRECs of Test Example 1 were subjected to the respective treatments below and cultured for 30 min. Here, treatment with 10 ng/mL VEGF was performed for 90 min. Thereafter, the HRECs were treated with 1 mM 5-(biotinamido)pentylamine, incubated for 1 hr, fixed with 3.7% formaldehyde, treated with 0.2% triton X-100, treated with a blocking solution containing 138 mM NaCl, 0.1% Tween 20 and 2% BSA dissolved in a 20 mM Tris (pH 7.6) buffer, incubated for 30 min, incubated with a monoclonal VE-cadherin antibody (1:200; Santa Cruz Biotechnology) for 12 hr or more (overnight), incubated with a FITC-conjugated goat anti-mouse antibody (1:200; Sigma-Aldrich), and then measured using confocal microscopy. Some (the following i), iii), iv), vi), ix)) of the results are shown in FIG. 5 and the VE-cadherin concentrations in the portions represented by the dotted lines in FIG. 5 are shown in FIG. 6. With reference to FIG. 6, 10 randomly selected cells were measured to determine the fluorescence intensity of single cells and thus quantify VE-cadherin.
VE-cadherin, which is a protein that mediates adherens junction, was analyzed to evaluate adherens junction.

Row | Structure (SMILES) | TGase activity in midazolam- and VEGF-treated cells after receptor antagonist (TGase) | ROS concentration in midazolam- and VEGF-treated cells after receptor antagonist [1] | changes in intracellular Ca^2+ (VEGF-induced) compared to control [2] | FITC-dextran diffused into lower chamber (cell permeability) / adherens junction disruption due to VEGF [3] | β-catenin concentration / adherens junction disruption due to VEGF (β-catenin) | ROS concentration (VEGF-induced) compared to control [4] | VE-cadherin concentration / adherens junction disruption due to VEGF (VE-cadherin)
1 | CCC(C)N(C)C(=O)c1cc2ccccc2c(-c2ccccc2Cl)n1 (stereo not drawn) [PK11195] | no increase in TGase activity, regardless of the PK11195 concentration | no increase in ROS concentration, regardless of the PK11195 concentration |  |  |  |  | 
2 | NCCSSCCN [cystamine] |  |  | intracellular Ca^2+ elevation was caused | the effect of preventing the adherens junction disruption was also observed | the effect of preventing the adherens junction disruption was also observed | ROS concentration was increased | the effect of preventing the adherens junction disruption was also observed
3 | CC(=O)N[C@@H](CS)C(=O)O [NAC] |  |  | intracellular Ca^2+ elevation was caused | the effect of preventing the adherens junction disruption was also observed | the effect of preventing the adherens junction disruption was also observed | no significant ROS concentration increase was observed | the effect of preventing the adherens junction disruption was also observed
4 | CC(=O)OCOC(=O)CN(CC(=O)OCOC(C)=O)c1ccccc1OCCOc1ccccc1N(CC(=O)OCOC(C)=O)CC(=O)OCOC(C)=O [BAPTA-AM] |  |  | no significant changes in intracellular Ca^2+ | the effect of preventing the adherens junction disruption was also observed | the effect of preventing the adherens junction disruption was also observed | no significant ROS concentration increase was observed | the effect of preventing the adherens junction disruption was also observed
5 | Cc1c(C)c2c(c(C)c1O)CCC(C)(C(=O)O)O2 (stereo not drawn) [Trolox] |  |  | intracellular Ca^2+ elevation was caused | the effect of preventing the adherens junction disruption was also observed | the effect of preventing the adherens junction disruption was also observed | no significant ROS concentration increase was observed | the effect of preventing the adherens junction disruption was also observed
6 | CN(C)c1cccc2c(S(=O)(=O)NCCCCCN)cccc12 [MDC] |  |  | intracellular Ca^2+ elevation was caused | the effect of preventing the adherens junction disruption was also observed | the effect of preventing the adherens junction disruption was also observed | ROS concentration was increased | the effect of preventing the adherens junction disruption was also observed
